Laboratory results reported in US4191780A, “Bromhexine derivatives and process for making same” (priority 1978, dated 1980).
Entries after “also recorded” stand apart in the source; their conditions may differ.

What was measured:
[1] = Long-term toxicity in rats: urine analysis; format: in vivo
Description: Urine analysis is carried out on 6 animals per group (3 males and 3 females) before as well as 30 and 60 days after treatment. Control group and the animals receiving 250 mg/kg Bromhexine and 350 mg/kg IFT 1026 respectively are observed.
The amount, aspect, colour, pH value, albumin, glucose, bilirubin levels and ketone bodies are recorded using also Ames reactive stripes.

[2] = Acute toxicity in rats treated orally; format: in vivo; conditions: oral
[3] = test system: blood pressure and heart rate; test: Action on blood pressure and heart rate in the anesthetized rat; format: in vivo; conditions: intraperitoneal
Description: After intraperitoneal administration of increasing doses of IFT 1026, blood pressure, heart rate and the amplitude of heart contractions are unchanged. The effect of IFT 1026 at the dose of 450 mg/kg on blood pressure in the anesthesized rat is exemplified by the graph in FIG. No. 1.
FIG. 1--Arterial pressure recorded in the anaesthetized rat before and after IFT 1026 administration.

[4] = test system: amphetamine-induced stereotypies; test: Action on the amphetamine-induced stereotypies and toxicity on mice; conditions: 500 mg/kg/10 ml p.o., 60 min before dl-amphetamine 16 mg/kg/ml i.p.
Description: Stereotypies and death are caused 60 min. after treatment with IFT 1026 (500 mg/kg/10 ml p.o.) by injecting dl-amphetamine (16 mg/kg/ml i.p.) to groups of 10 male albino Swiss mice per cage.

[5] = test system: Cough elicited by 15% citric acid spray; test: Antitussive effect in Guinea-pigs and mice (overall); format: in vivo; conditions: mice (oral) and Guinea-pigs (i.p.)
Description: (6) Antitussive effect in Guinea-pigs and mice
The effect was tested 1 hour after oral administration and 30 min. after intraperitoneal application of the antitussive agents on mice and Guinea-pigs respectively.

[6] = test system: various types of cough; conditions: animal experiments; Engelhorn 1966, Merker 1966, Boyd 1966; cited from earlier work
[7] = test system: bronchial secretion; conditions: animal experiments; Engelhorn 1966, Merker 1966, Boyd 1966; cited from earlier work

Row | SMILES | urine amount, aspect, colour, pH, albumin, glucose, bilirubin, ketone bodies ([1]; 250 mg/kg Bromhexine, 350 mg/kg IFT 1026, 30 and 60 days) | impairment in the kidney ([1]; 350 mg/kg IFT 1026) | behaviour / clinical signs ([2]; high doses (up to 3000 mg/kg)) | lethal cases ([2]; increasing doses up to 3000 mg/kg, up to the seventh day after treatment) | amplitude of heart contractions ([3]; increasing doses) | heart rate ([3]; increasing doses) | blood pressure ([3]; rat, increasing doses (450 mg/kg in FIG. 1)) | amphetamine-induced death [4] | amphetamine-induced stereotypies [4] | antitussive effect compared in terms of the parent compound (Bromhexine) [5] | antitussive effect compared with Bromhexine [5] | effects on various types of cough [6] | stimulation of bronchial secretion [7]
1 | COc1ccccc1OCC(=O)Nc1c(Br)cc(Br)cc1CN(C)C1CCCCC1 [IFT 1026, N-(2-guaiacol-glycolyl-amino-3,5-dibromobenzyl)N-cyclohexylmethylamine] | no changes occur in said parameters | no impairment in the kidney | slight depression in behaviour, occasional tremor and stiffness | no lethal cases | unchanged | unchanged | unchanged | not changed | not changed | the same when compared in terms of the parent compound | slightly weaker than Bromhexine; also recorded: approximately the same as that of Bromhexine | – | –
2 | CN(Cc1cc(Br)cc(Br)c1N)C1CCCCC1 [Bromhexine, N-cyclohexyl-N-methyl-2-(2-amino-3,5-dibromo)benzylammonium chloride] | – | – | – | – | – | – | – | – | – | – | – | depressing effects | marked stimulation
